Data taken from article PMC2365111, “Cytotoxicity of Poly(Phenolic)Sulfonates and Their Sodium Salts in L1210 Lymphoid Leukemia Cells” (Metal-Based Drugs, 1998).

How the values were obtained:
[1] = tested on: murine L1210 lymphoid leukemia; type: cell-based, mouse; conditions: for ED50 converted to: converted from μg/ml
Text: (§1) CYTOTOXlCITY OF POLY(PHENOLIC)SULFONATES AND THEIR SODIUM SALTS IN L1210 LYMPHOID LEUKEMIA CELLS Fei Wang, Amy E. Warren, Cheryl R. Barnes and Iris H. Hall* Division of Medicinal Chemistry and Natural Products University of North Carolina Chapel Hill, N.C. […] Because ofthese properties it was surmised that these poly(phenolic)sulfonated compounds may have antineoplastic activity. METHODS Source of Compounds Test compounds were supplied by GeneLabs, Inc. [Redwood City, CA [Table 1]. Radioisotopes were obtained from New England Nuclear [Dupont, Boston, MA]. Substrates and co-factors were purchased om Sigma Chemical Co., [St Louis, MO]. Pentosan sulfate and other antineoplastic standards were obtained from Sigma Chemical Co. Tumor lines were obtained from American Type Culture Collection [Rockville, MD]. 147 Vol. 5, No. 3, 1998 Cytotoxicity ofSodium Poly(Phenolic)Sulfonates in L1210 Lymphoid Leukemia Cells Table 1 Structures of Poly(phenolic)sulfonate Compounds O2R" n Compound R' R" n MW # G1-2041 H OH 8 1489.46 G1-2029 H OH 6 1117.09 G1-2030 H OH 4 744.73 GI-2021 CH3 ONa 8 1777.5 G1-2057 CH3 ONa 4 888.75 GI-2158 CH3 ONa 6 1333.13 GI-2063 OCH3 ONa 8 2001.65 G1-2042 OAc ONa 8 2017.73 Cytotoxicity Poly(phenolic)sulfonates were tested for cytotoxic activity by homogenizing drug in 0.05% Tween 80/H20 to give a mg/ml stock concentration. These solutions were sterilized by passing them through an acrodisc ([…]). The following cell lines were maintained by literature techniques: murine L1210 lymphoid leukemia, P-388 lymphocytic leukemia, rat UMR 106 osteosarcoma, human Tmolt3 acute lymphoblastic T cell leukemia, HUT-8 lymphoma, HeLa-S suspended cervical carcinoma, HeLa solid cervical carcinoma, KB epidermoid nasopharynx, A431 epidermoid carcinoma, colorectal adenocarcinoma SW480, HCT-8 ileocecal adenocarcinoma, lung bronchogenic MB-9812, A549 lung carcinoma, and glioma HS683. Geran et al.'s protocol was used to assess the cytotoxicity of the compounds and standards in each cell line. Cell numbers were determined by the trypan blue exclusion technique. Solid tumor cytotoxicity was determined by Leibovitz et al. 's method utilizing crystal violeeOH and read at 562 nm (Molecular Devices). Values for cytotoxicity were expressed as EDs0 g/ml, i.e. the concentration ofthe compound inhibiting 50% ofcell growth. A value of less than 4 µg/ml was required for significant activity ofgrowth inhibition. Incorporation Studies Incorporation of labeled precursors into 3H-DNA, 3H -RNA and 3H -protein for 10 L1210 cells was obtained. The concentration response for inhibition of DNA, RNA and protein synthesis of the compounds at 25, 50 and 100 l.tM was determined for 60 min incubations. Incorporation of 14C -glycine (53.0 mCi/mmol) into purines was obtained by the method of Cadman et al.[12]. Incorporation of 4C- formate (53.0 mCi/mmol) into pyrimidines was determined by the method of Christopherson et al.[13]. Enzyme Assays Inhibition of various enzyme activities was performed by first preparing the appropriate L1210 cell homogenates or subcellular fractions, then adding the drug to be tested during the enzyme assay. For the concentration response studies, inhibition of enzyme activity was determined at 25, 50 and 100 l.tM of compounds G1-2021, G1-2029, GI-2041 and G1-2063 after 60 min incubations. DNA polymerase Ot activity was determined in cytoplasmic extracts isolated by Eichler et aL's method. The DNA polymerase assay was described by Sedwick et al.[15] using 3H-TTP. Messenger-, ribosomal- and transfer-RNA polymerase enzymes were isolated with different concentrations of ammonium sulfate; individual RNA polymerase activities were determined using 3H -UTP 16,17]. Ribonucleoside reductase activity was measured using 4C -CDP with dithioerythritol. The deoxyribonucleotides 4C -dCDP were separated from the ribonucleotides by TLC on PEI plates. […]

[2] = target: T1, Carbamyl phosphate synthetase (Mus musculus, UniProt B2RQC6); experiment: Carbamyl phosphate synthetase activity, L1210; type: biochemical; conditions: 60 min, N=6
T1 construct: preparing the appropriate L1210 cell homogenates or subcellular fractions; endogenous in cells; host or cells: L1210 murine lymphoid leukemia cells, homogenate or subcellular fraction
Text: as §1

[3] = tested on: L1210 de novo purine synthesis; experiment: 14C-glycine incorporation into purines; type: cell-based, mouse; conditions: 60 min, N=6
Text: as §1

[4] = target: T2, Aspartate transcarbamylase (Mus musculus, UniProt B2RQC6); experiment: Aspartate transcarbamylase activity, L1210; type: biochemical; conditions: 60 min, N=6
T2 construct: preparing the appropriate L1210 cell homogenates or subcellular fractions; endogenous in cells; host or cells: L1210 murine lymphoid leukemia cells, homogenate or subcellular fraction
Text: as §1

T1 sequence (B2RQC6 whole entry): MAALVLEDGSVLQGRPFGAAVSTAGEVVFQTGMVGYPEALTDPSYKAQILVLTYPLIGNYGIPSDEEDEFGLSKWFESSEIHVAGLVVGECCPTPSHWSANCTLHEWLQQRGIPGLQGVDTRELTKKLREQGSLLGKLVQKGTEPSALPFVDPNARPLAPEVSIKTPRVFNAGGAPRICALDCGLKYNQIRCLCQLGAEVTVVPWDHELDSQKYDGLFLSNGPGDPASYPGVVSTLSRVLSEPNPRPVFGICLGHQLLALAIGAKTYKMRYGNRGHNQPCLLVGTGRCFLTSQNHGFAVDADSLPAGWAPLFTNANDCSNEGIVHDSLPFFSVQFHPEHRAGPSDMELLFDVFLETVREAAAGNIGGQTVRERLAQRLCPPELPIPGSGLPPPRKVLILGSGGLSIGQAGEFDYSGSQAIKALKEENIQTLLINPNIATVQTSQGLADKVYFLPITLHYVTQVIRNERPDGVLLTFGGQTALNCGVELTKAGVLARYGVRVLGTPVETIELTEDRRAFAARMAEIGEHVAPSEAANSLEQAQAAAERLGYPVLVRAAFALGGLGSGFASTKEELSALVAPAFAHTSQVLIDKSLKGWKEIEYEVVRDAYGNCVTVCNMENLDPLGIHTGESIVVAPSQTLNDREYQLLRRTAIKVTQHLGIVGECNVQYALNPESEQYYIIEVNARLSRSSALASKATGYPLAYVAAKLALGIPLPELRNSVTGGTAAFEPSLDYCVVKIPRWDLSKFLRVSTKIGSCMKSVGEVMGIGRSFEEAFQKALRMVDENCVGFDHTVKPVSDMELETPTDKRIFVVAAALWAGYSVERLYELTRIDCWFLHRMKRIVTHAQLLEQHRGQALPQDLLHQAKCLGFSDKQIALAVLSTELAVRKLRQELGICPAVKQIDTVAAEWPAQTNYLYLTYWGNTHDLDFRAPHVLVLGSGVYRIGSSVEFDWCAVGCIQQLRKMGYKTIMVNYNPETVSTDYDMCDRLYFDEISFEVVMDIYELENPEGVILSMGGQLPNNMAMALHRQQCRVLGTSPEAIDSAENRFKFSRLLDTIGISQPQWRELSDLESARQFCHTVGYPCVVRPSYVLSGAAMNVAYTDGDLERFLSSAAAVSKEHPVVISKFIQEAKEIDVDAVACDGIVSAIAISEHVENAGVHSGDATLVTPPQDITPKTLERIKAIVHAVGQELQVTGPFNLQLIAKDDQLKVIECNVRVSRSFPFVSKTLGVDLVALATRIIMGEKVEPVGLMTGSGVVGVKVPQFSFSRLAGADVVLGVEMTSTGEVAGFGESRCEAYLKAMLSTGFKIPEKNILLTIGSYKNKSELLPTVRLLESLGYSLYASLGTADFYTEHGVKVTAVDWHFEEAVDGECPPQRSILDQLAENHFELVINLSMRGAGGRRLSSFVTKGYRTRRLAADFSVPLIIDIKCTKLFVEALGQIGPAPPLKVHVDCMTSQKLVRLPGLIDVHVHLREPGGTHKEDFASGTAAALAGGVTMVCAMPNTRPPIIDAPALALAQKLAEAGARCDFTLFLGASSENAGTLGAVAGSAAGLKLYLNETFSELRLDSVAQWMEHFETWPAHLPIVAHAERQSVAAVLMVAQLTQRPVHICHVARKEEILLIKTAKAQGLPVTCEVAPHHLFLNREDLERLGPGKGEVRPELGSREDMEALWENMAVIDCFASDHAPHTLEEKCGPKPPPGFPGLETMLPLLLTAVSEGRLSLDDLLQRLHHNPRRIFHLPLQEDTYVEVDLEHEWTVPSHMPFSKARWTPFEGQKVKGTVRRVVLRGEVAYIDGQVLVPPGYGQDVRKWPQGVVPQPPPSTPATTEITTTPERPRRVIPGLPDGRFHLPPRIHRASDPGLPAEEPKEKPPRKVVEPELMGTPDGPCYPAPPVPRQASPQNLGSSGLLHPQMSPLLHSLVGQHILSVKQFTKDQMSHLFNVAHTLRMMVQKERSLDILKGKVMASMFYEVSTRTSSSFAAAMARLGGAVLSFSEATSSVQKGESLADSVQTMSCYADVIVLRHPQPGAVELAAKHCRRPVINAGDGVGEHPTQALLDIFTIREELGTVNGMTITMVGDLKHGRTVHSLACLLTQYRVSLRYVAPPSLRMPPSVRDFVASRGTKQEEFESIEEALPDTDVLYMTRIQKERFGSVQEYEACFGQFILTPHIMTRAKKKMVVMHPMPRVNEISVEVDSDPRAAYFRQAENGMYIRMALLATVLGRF
T2 sequence (B2RQC6 whole entry): as above

| Structure (SMILES) | ED50 converted to [1] [nM] | Carbamyl phosphate synthetase ([2]; 25 μM) | Carbamyl phosphate synthetase ([2]; 50 μM) | Purine de novo synthesis ([3]; 25 μM) | Purine de novo synthesis ([3]; 50 μM) | Purine de novo synthesis ([3]; 100 μM) | Aspartate transcarbamylase ([4]; 25 μM) | Aspartate transcarbamylase ([4]; 50 μM) | Aspartate transcarbamylase ([4]; 100 μM) | cytotoxic activity, in words [1] | Carbamyl phosphate synthetase ([2]; 100 μM) |
| --- | --- | --- | --- | --- | --- | --- | --- | --- | --- | --- | --- |
| COc1c2cc(S(=O)(=O)[O-])cc1Cc1cc(S(=O)(=O)[O-])cc(c1OC)Cc1cc(S(=O)(=O)[O-])cc(c1OC)Cc1cc(S(=O)(=O)[O-])cc(c1OC)Cc1cc(S(=O)(=O)[O-])cc(c1OC)Cc1cc(S(=O)(=O)[O-])cc(c1OC)Cc1cc(S(=O)(=O)[O-])cc(c1OC)Cc1cc(S(=O)(=O)[O-])cc(c1OC)C2.[Na+].[Na+].[Na+].[Na+].[Na+].[Na+].[Na+].[Na+] [GI-2021] | 777 | 94+5% of Control | 89+5% of Control | 121+6% of Control | 118+4% of Control | 74+6% of Control | 101+6% of Control | 100+5% of Control | 98+4% of Control | – | – |
| O=S(=O)(O)c1cc2c(O)c(c1)Cc1cc(S(=O)(=O)O)cc(c1O)Cc1cc(S(=O)(=O)O)cc(c1O)Cc1cc(S(=O)(=O)O)cc(c1O)Cc1cc(S(=O)(=O)O)cc(c1O)Cc1cc(S(=O)(=O)O)cc(c1O)C2 [GI-2029] | 1362 | 78+5% of Control | – | 130+6% of Control | 97+6% of Control | – | 100+5% of Control | 100+5% of Control | 98+6% of Control | most potent activity | 72+3% of Control |
| O=S(=O)(O)c1cc2c(O)c(c1)Cc1cc(S(=O)(=O)O)cc(c1O)Cc1cc(S(=O)(=O)O)cc(c1O)Cc1cc(S(=O)(=O)O)cc(c1O)Cc1cc(S(=O)(=O)O)cc(c1O)Cc1cc(S(=O)(=O)O)cc(c1O)Cc1cc(S(=O)(=O)O)cc(c1O)Cc1cc(S(=O)(=O)O)cc(c1O)C2 [GI-2041] | 1263 | 142+6% of Control | 82+5% of Control | 85+5% of Control | – | 54+3% of Control | 106+5% of Control | – | 94+5% of Control | most potent activity | – |
